# Assay results as given in article PMC5387716, “Discovery of monocarbonyl curcumin-BTP hybrids as STAT3 inhibitors for drug-sensitive and drug-resistant breast cancer therapy” (Scientific Reports, 2017).
# Experiments:
# MCF-7 cells [1] = assay: Flow cytometry of the cell cycle, MCF-7; format: cell-based, human; settings: MCF-7, 24 h
# Description: MCF-7 or MCF-7/DOX cells were plated in 6-well culture plates (1.5 × 10^5 cells per well). After incubation overnight, various concentrations of 6b or curcumin were added and cells were incubated for 24 h. Cells were harvested, washed with cold PBS, and incubated with pre-cooled 70% ethanol for a minimum of 4 h at 4 °C to fix them. The cells were then centrifuged, carefully aspirated from the supernatant, and re-suspended in a propidium iodide (final concentration, 40 μg/ml) and RNase A (final concentration, 100 μg/ml) solution at a final cell density of 0.5 × 10^6 cells/ml. The suspension was incubated at 37 °C for 30 min prior to analysis by flow cytometry.
# MCF-7 cells [2] = assay: MTT anti-proliferative assay, MCF-7; format: cell-based, human; settings: Homo sapiens, MCF7, 48 h, read-out: MCF-7 IC50 ± SD
# Description: (§1) All cell lines were purchased from Cell Bank of Shanghai Institute of Biochemistry and Cell Biology, Chinese Academy of Sciences (Shanghai, China). Human breast carcinoma cells (MCF-7 and MCF-7/DOX), breast epithelial cells (MCF-10A) and normal human liver cells (LO2) were maintained in RPMI-1640 medium. All cells were supplemented with 12% fetal bovine serum containing 50 μg/ml penicillin and 50 μg/ml streptomycin. Cells were grown to 80% confluency in a tissue culture flask at 37 °C in a humidified atmosphere containing 5% CO2, and then were trypsinized with 1 × Trypsin-Versene and split. The MCF-7/DOX cell line we used was established from its parental cell line MCF-7 cell by gradually increasing the concentration of DOX to which the cells were exposed in a stepwise manner over a period of 8 months. […] The cells were incubated in drug-free medium for at least 1 week before use.
# (§2) Cells (MCF-7, MCF-7/DOX, MCF-10A, LO2) were seeded in 96-well plates at a density of 3,000–6,000 cells per well. The cells were incubated overnight (16 h) in a humidified 5% CO2 incubator at 37 °C. After media removal, different concentrations of test compounds were added in triplicate to the plates in 200 μL of fresh media and were incubated with the cells at 37 °C for 48 h. […] Cell viability was evaluated using 3-(4, 5-dimethylthiazolyl)-2,5-diphenyltetrazoliumbromide (MTT). The absorbance was read by an ELISA reader (SpectraMax Plus384, Molecular Devices, Sunnyvale, CA) at a test wavelength of 570 nm and a reference wavelength of 630 nm. Cell viability was calculated using the following formula: […]
# MCF-7 cells [3] = assay: ROS detection by DCFH-DA flow cytometry, MCF-7; format: cell-based, human; settings: MCF-7, different concentrations (1, 2, 4 μM), 24 h
# Description: (§3) MCF-7 or MCF-7/DOX cells were seeded at a density of 3 × 10^5 cells per well of a 6-well plate and treated with various concentrations of 6b (0, 1, 2, 4 μM) or 4 μM curcumin for 24 h. DCFH-DA was dissolved in serum-free medium and diluted to a final concentration of 10 μM. After treatment with 6b, the growth media was replaced with serum-free medium containing the probe. After incubation for 20 min at 37 °C, cells were washed with serum-free medium twice, digested by trypsin and resuspended in pre-warmed PBS buffer. The samples were then subjected to a flow cytometry assay using a BD FACSCalibur flow cytometer (Becton & Dickinson Company, Franklin Lakes, NJ).
# STAT3 = assay: Immunofluorescence of p-STAT3 nuclear translocation; format: cell-based, human; settings: MCF-7 cells, 6 h then IL-6 50 ng/ml 30 min
# Description: The basic protocol for the analysis of p-STAT3 subcellular location has been previously described. Briefly, MCF-7 cells were starved overnight, followed by incubation with 6b for 6 h. Cells were then stimulated with 50 ng/ml IL-6 for 30 min before being harvested in Tris-buffered saline (TBS) containing 1 mM sodium orthovanadate. Cells were transferred to polylysine-coated slides by cytospin and air dried for 20 min at room temperature. After being fixed in 2% of paraformaldehyde for 10 min and permeabilized in 0.1% Triton X-100 for 5 min, cells were blocked in TBS containing 5% bovine serum albumin for 1 h at room temperature before being stained with p-STAT3 (Tyr705) overnight at 4 °C. Then, cells were gently washed and incubated with FITC–conjugated, goat, anti-rabbit IgG (Beyotime Biotechnology Ltd). Finally, slides were incubated with 5 μg/ml of 4′,6-diamidino-2-phenylindole (DAPI, Beyotime) for 5 min. The subcellular location and relative abundance of p-STAT3 were immediately analyzed with an ImageXpress Micro Confocal analysis.
# MCF-7 cells [4] = assay: Colony survival assay, MCF-7; format: cell-based, human; settings: 24 h treatment, 14 d culture
# Description: MCF-7 or MCF-7/DOX cells were cultured a 6-well plate at a density of 800–1,000 cells/well with regular growth medium. Cells were treated for 24 h with the vehicle and 6b at 0.15–1 μM on the following day. Cells were allowed to grow for 10–14 d until colonies were visible. Crystal violet solution (Sigma, St. Louis, MO, USA) was used to stain the colonies for 4 hours and colonies were imaged.
# [5] = tested on: PARP, Caspase 9 and Caspase 3; assay: Western blot of cleaved PARP, Caspase 9 and Caspase 3; format: cell-based, human
# MCF-10A cells = assay: MTT anti-proliferative assay, MCF-10A; format: cell-based, human; settings: 48 h, normal breast epithelial cells, Table 2 prints no unit, μM
# Description: as §1, §2
# MCF-7/DOX cells = assay: ROS detection by DCFH-DA flow cytometry, MCF-7/DOX; format: cell-based, human; settings: different concentrations (1, 2, 4 μM), 24 h
# Description: as §3
# Bax = assay: Western blot of Bax; format: cell-based, human; settings: MCF-7 and MCF-7/DOX cells, 24 h
# Description: MCF-7 or MCF-7/DOX cells were incubated with various concentrations of 6b for 24 h. After trypsinization, cells were treated with 1× RIPA lysis buffer (50 mM Tris–HCl, pH 7.4, 150 mM NaCl, 0.25% deoxycholic acid, 1% NP-40, 1 mM EDTA and protease inhibitors) (Amresco, Solon, USA) to extract the total proteins. An aliquot of proteins from the total cell lysates (30 to 60 μg/lane) was separated by sodium dodecyl sulfate (10%) polyacrylamide gel electrophoresis (SDS–PAGE, Bio-Rad Laboratories, Hercules, CA), wet-transferred to NC membrane (Bio-Rad Laboratories, Hercules, CA) and blotted with primary antibodies specific for STAT3, p-STAT3, p-Jak2, Jak2, p-Src, Src, Erk, P-Erk, PARP, cleaved PARP, Bcl-2, Bax, Cyclin D1, P-gp and GAPDH. Bound immuno-complexes were detected using ChemiDOC™ XRS + system (Bio-Rad Laboratories, Hercules, CA).
compound,measurement,setting,value
"COc1ccc(/C=C/C(=O)N2CCN(C(=O)C3=Cc4cc(Br)ccc4S3(=O)=O)CC2)cc1 [Compound 6b, (E)-1-(4-(5-bromo-1,1-dioxidobenzo[b]thiophene-2-carbonyl)piperazin-1-yl)-3-(4-methoxyphenyl)prop-2-en-1-one]",cells in the Sub-G1 phase,MCF-7 cells [1],significant increase
same,percentage of cells in S phase,MCF-7 cells [1],increased
same,IC50,MCF-7 cells [2],0.52 ± 0.16 µM
same,increase of ROS levels,MCF-7 cells [3],2–8 fold
same,p-STAT3 level in the nucleus,STAT3,sharp decrease
same,clonogenic ability / colony formation,"MCF-7 cells [4]; MCF-7, 0.25 μM",significant reduction in clonogenic ability
same,clonogenic ability / colony formation,"MCF-7 cells [4]; MCF-7, 0.5 μM",almost a cessation of colony formation
same,"cleavage of PARP, Caspase 9 and Caspase 3",[5]; MCF-7 and MCF-7/DOX cells,induced the cleavage
same,cleaved PARP,"[5]; MCF-10A cells, concentrations up to 4 μM",little
same,melting point,,250 to 251 °C
same,IC50,MCF-10A cells,7.72 ± 0.56 µM
same,IC50,"MCF-10A cells; Homo sapiens, MCF-10A",7.7 µM
same,increase of ROS levels,MCF-7/DOX cells,2–8 fold
same,expression of Bax (protein),Bax,increased
